Experimental data from patent US10828301B2, “2,4-pyrimidinediamine compounds and their uses” (Rigel Pharmaceuticals, Inc, priority 2002, dated 2020).
Structures can show the parent of a compound that is named as a salt. Where two headings read alike, the source gives them in different places.

System: cultured human mast cells (CHMC)
Assay: CHMC low cell density IgE activation: tryptase and LTC4 assays
Type: cell-based
Settings: Low Density CHMC, anti-IgE activation
Procedure: Pellet CHMC cells (980 rpm, 10 min) and resuspend in pre-warmed MT. Add 65 ul of cells to each 96-well plate. Depending on the degranulation activity for each particular CHMC donor, load 1000-1500 cells/well. Mix four times followed by a 1 hr incubation at 37° C. […] Stimulate cells by adding 25 ul of 6× anti-IgE solution to the appropriate plates. Add 25 ul MT to un-stimulated control wells. Mix twice following addition of the anti-IgE. Incubate at 37° C. for 30 minutes. […] Spin plates at 1000 rpm for 10 min to pellet cells. Transfer 25 ul of supernatant to a 96-well black bottom plate and add 100 ul of freshly diluted tryptase substrate solution to each well. Incubate plates at room temperature for 30 min.
Leukotriene C4 (LTC4) is also quantified using an ELISA kit on appropriately diluted supernatant samples (determined empirically for each donor cell population so that the sample measurement falls within the standard curve) following the supplier's instructions.

[1] = Homo sapiens, Mast cell, tryptase readout, read-out: CHMC anti-IgE Tryptase
[2] = Homo sapiens, Mast cell, hexosaminidase readout, read-out: CHMC anti-IgE Hexos.
[3] = tryptase readout, read-out: CHMC anti-IgE Tryptase

| Structure (SMILES) | IC50 [1] [µM] | also measured |
| --- | --- | --- |
| COC(=O)C1Cc2cc(Nc3ncc(F)c(Nc4ccc(OC)nc4OC)n3)ccc2O1 (racemic) [Compound R927032, (±)-N2-(2,3-Dihydro-2-methoxycarbonylbenzofuran-5-yl)-N4-(2,6-dimethoxypyridin-3-yl)-5-fluoro-2,4-pyrimidinediamine] | 0.899 | – |
| Cc1ccc(CNc2ncc(F)c(Nc3ccc4c(c3)OCCO4)n2)cc1Cl [Compound R908696, N2-(3-chloro-4-methylbenzyl)-N4-(3,4-ethylenedioxyphenyl)-5-fluoro-2,4-pyrimidinediamine] | 3.55 | – |
| CN1C(=O)COc2ccc(Nc3nc(Nc4cccc(O)c4)ncc3F)cc21 [Compound R908709, 5-Fluoro-N2-(3-hydroxyphenyl)-N4-(N-methyl-1,4-benzoxazin-3-on-6-yl)-2,4-pyrimidinediamine] | 2.41 | – |
| OC(CNc1ncc(F)c(NCC(O)c2ccccc2)n1)c1ccccc1 (stereo not drawn) [Compound R925768, N2,N4-Bis(2-hydroxy-2-phenylethyl)-5-fluoro-2,4-pyrimidinediamine] | > 10 | – |
| Fc1cnc(NCc2ccco2)nc1NCc1ccco1 [Compound R925769, N2,N4-Bis(furfuryl)-5-fluoro-2,4-pyrimidinediamine] | > 10 | – |
| COCCNc1ncc(F)c(Nc2ccc3c(c2)OCCO3)n1 [Compound R926229, N4-(3,4-Ethylenedioxyphenyl)-5-fluoro-N2-(2-methoxyethyl)-2,4-pyrimidinediamine] | – | IC50 [2]: > 10 µM |
| COc1ccc(CNc2ncc(F)c(Nc3ccc4c(c3)OCCO4)n2)cc1 [Compound R926230, N4-(3,4-Ethylenedioxyphenyl)-5-fluoro-N2-(4-methoxybenzyl)-2,4-pyrimidinediamine] | – | IC50 [2]: > 10 µM |
| CCOC(=O)c1cnc(Nc2ccc3c(c2)OCCO3)nc1Nc1ccc2c(c1)OCCO2 [Compound R926252, N2,N4-Bis(3,4-ethylenedioxyphenyl)-5-ethoxycarbonyl-2,4-pyrimidinediamine] | 2.8 | – |
| O=C(O)c1cc2cc(Nc3ncc(F)c(Nc4cccc(O)c4)n3)ccc2o1 [Compound R926478, N2-(2-Carboxybenzofuran-5-yl)-5-fluoro-N4-(3-hydroxyphenyl)-2,4-pyrimidinediamine] | > 10 | – |
| O=C(O)c1cc2cc(Nc3ncc(F)c(Nc4cccc(O)c4)n3)ccc2[nH]1 [Compound R926479, N2-(2-Carboxyindol-5-yl)-5-fluoro-N4-(3-hydroxyphenyl)-2,4-pyrimidinediamine] | > 10 | – |
| O=C(O)c1cc2cc(Nc3ncc(F)c(Nc4ccc5c(c4)OCCO5)n3)ccc2o1 [Compound R926698, N4-(3,4-Ethylenedioxyphenyl)-5-fluoro-N2-(2-carboxybenzofuran-5-yl)-2,4-pyrimidinediamine] | > 10 | – |
| Cc1onc(-c2ccccc2)c1Nc1ncc(F)c(Nc2ccc3c(c2)OCCO3)n1 [Compound R926743, N4-(3,4-Ethylenedioxyphenyl)-5-fluoro-N2-(3-phenyl-5-methylisoxazol-4-yl)-2,4-pyrimidinediamine] | > 10 | – |
| Cc1noc(C)c1Nc1ncc(F)c(Nc2ccc3c(c2)OCCO3)n1 [Compound R926744, N4-(3,4-Ethylenedioxyphenyl)-5-fluoro-N2-(3,5-dimethylisoxazol-4-yl)-2,4-pyrimidinediamine] | > 10 | – |
| COc1ccc(Nc2nc(Nc3cccc(O)c3)ncc2F)c(OC)n1 [Compound R926887, N4-(2,6-Dimethoxypyridin-3-yl)-5-fluoro-N2-(3-hydroxyphenyl)-2,4-pyrimidinediamine] | 1.75 | – |
| CCOC(=O)C1CCN(C(=O)c2cccc(Nc3ncc(F)c(Nc4ccc5cc[nH]c5c4)n3)c2)CC1 [Compound R926935, N2-[3-[[4-(Ethoxycarbonyl)piperidino]carbonyl]phenyl]-5-fluoro-N4-[(1H)-indol-6-yl]-2,4-pyrimidinediamine] | 4.44 | – |
| CCOC(=O)C1CCN(C(=O)c2cccc(Nc3ncc(F)c(Nc4cccc(O)c4)n3)c2)CC1 [Compound R926939, N2-[3-[[4-(Ethoxycarbonyl)piperidino]carbonyl]phenyl]-5-fluoro-N4-(3-hydroxyphenyl)-2,4-pyrimidinediamine] | 3.62 | – |
| CCOC(=O)C1CCN(C(=O)c2cccc(Nc3nc(Nc4cccc(O)c4)ncc3F)c2)CC1 [Compound R926940, N4-[3-[[4-(Ethoxycarbonyl)piperidino]carbonyl]phenyl]-5-fluoro-N2-(3-hydroxyphenyl)-2,4-pyrimidinediamine] | 7.75 | – |
| CCOC1CCCc2ccc(Nc3nc(Nc4cccc(O)c4)ncc3F)cc21 (stereo not drawn) [Compound R926942, N4-(1-Ethoxy-1,2,3,4-tetrahydronaphthalen-7-yl)-5-fluoro-N2-(3-hydroxyphenyl)-2,4-pyrimidinediamine] | 4.81 | – |
| CNC(=O)COc1cccc(Nc2ncc(F)c(Nc3cc(C)ccn3)n2)c1 [Compound R927016, 5-Fluoro-N2-[3-(N-methylamino)carbonylmethyleneoxyphenyl]-N4-(4-methylpyridin-2-yl)-2,4-pyrimidinediamine] | – | IC50 [3]: 1.41 µM |
| Cc1ccc(Nc2nc(Nc3cccc(O)c3)ncc2F)nc1 [Compound R927017, 5-Fluoro-N2-(3-hydroxyphenyl)-N4-(5-methylpyridin-2-yl)-2,4-pyrimidinediamine] | 2.45 | – |
| Oc1cccc(Nc2ncc(F)c(Nc3ccc(Cl)nc3)n2)c1 [Compound R927018, N4-(6-Chloropyridin-3-yl)-5-fluoro-N2-(3-hydroxyphenyl)-2,4-pyrimidinediamine] | 1.45 | – |
| Oc1cccc(Nc2ncc(F)c(Nc3ccc4ncccc4c3)n2)c1 [Compound R927019, 5-Fluoro-N2-(3-hydroxyphenyl)-N4-(quinolin-6-yl)-2,4-pyrimidinediamine] | 1.18 | – |
| O=C(O)Cc1cccc(Nc2ncc(F)c(Nc3cccc(CC(=O)O)c3)n2)c1 [Compound R935117] | – | IC50 [3]: > 10 µM |
| CC(C)(CO)c1ccc(Nc2nc(Nc3ccc4c(c3)OCCO4)ncc2F)cc1 [Compound R935149, N2-(3,4-Ethylenedioxyphenyl)-N4-[4-(2-hydroxy-1,1-dimethylethyl)phenyl]-5-fluoro-2,4-pyrimidinediamine] | 0.708 | – |
| CC(C)Oc1ccc(Nc2ncc(F)c(Nn3cccc3)n2)cc1 [Compound R935276, 5-Fluoro-N2-(4-isopropoxyphenyl)-N4-(1H-pyrrol-1-yl)-2,4-pyrimidinediamine] | 2.33 | – |
| COC(=O)c1cc(Nc2ncc(F)c(Nc3ccc(OC)c(C(=O)OC)c3)n2)ccc1OC [Compound R945066, N2,N4-Bis(4-methoxy-3-methoxycarbonylphenyl)-5-fluoro-2,4-pyrimidinediamine] | 5.2 | – |
| COc1ccc(Nc2ncc(F)c(Nc3ccc(OC)c(C(=O)O)c3)n2)cc1C(=O)O [Compound R945067, N2,N4-Bis(3-carboxy-4-methoxyphenyl)-5-fluoro-2,4-pyrimidinediamine] | > 10 | – |
| COc1cc(Nc2ncc(F)c(Nc3ccc(C(=O)O)c(OC)c3)n2)ccc1C(=O)O [Compound R945068, N2,N4-Bis(4-carboxy-3-methoxyphenyl)-5-fluoro-2,4-pyrimidinediamine] | > 10 | – |
| Nc1cccc(Nc2ccnc(Nc3cccc(N)c3)n2)c1 [Compound R950109, N2,N4-Bis(3-aminophenyl)-2,4-pyrimidinediamine] | 7.95 | – |
| Nc1ccc(Nc2ncc(F)c(Nc3ccc(N)cc3)n2)cc1 [Compound R950121, N2,N4-Bis(4-aminophenyl)-5-fluoro-2,4-pyrimidinediamine Hydrogen Chloride Salt] | 4.25 | – |
